The results in this text go back to patent US12428442B2, “Compounds, compositions and methods for synthesis” (WAVE LIFE SCIENCES LTD., priority 2017, dated 2025).

The nature of the data set: Measuring pKa value of amino alcohols by titration against NaOH in MDA/KCl. The settings on record: MDA = Methanol-Dioxane-Acetonitrile, 1:1:1.
Experimental: To this clear solution was added 6 μL of con. HCl and stirred well. This solution was titrated against 1 M NaOH solution. NaOH solution was added in 2 (or 4) ml increments. During the addition of each increment of NaOH solution, pH of the solution was recorded using a pH meter until a pH of 12 was measured. The measured titration values were analyzed (graph pad software was used) to determine the first derivative of the volume of NaOH used in the titration. This first derivative value is the pKa of the amino alcohol.
Consider `C[Si](C[C@H](O)[C@H]1CCCN1)(C1CCCCC1)C1CCCCC1` [WV-CA-041-D], for which the “solubility of sample in MDA mixture” value is “Sample Insoluble in MDA”. For `C[Si](C[C@@H](O)[C@@H]1CCCN1)(C1CCCCC1)C1CCCCC1` [WV-CA-041-L] the value was “Sample Insoluble in MDA”.

For the compound `C[Si](C[C@@H](O)[C@@H]1CCCCN1)(C1CCCCC1)C1CCCCC1` [WV-CA-045], the “solubility of sample in MDA mixture” value is given as “Insoluble in MDA mixture”. Regarding `C[Si](C[C@H](O)[C@@H]1CCCCN1)(C1CCCCC1)C1CCCCC1` [WV-CA-046], the “solubility of sample in MDA mixture” value is listed as “Insoluble in MDA mixture”.
